The test system of assay [1] is LPS endotoxin. The experiment in a line: High dose acute mouse endotoxemia (LPS endotoxin induced mortality). The following applies: for % Survival / survivors/total: i.p., LPS 50 mg/kg ip. The class given is in vivo, Male Balb/c mice. The text has this: (§1) Endotoxin administration produces a shock-like state characterized by vascular permeability changes, hypotension, neutropenia, thrombocytopenia,multiple organ damage and death. The major mediators released after endotoxin injection are TNF (tumor necrosis factor), PAF (platelet activating factor) and […] (interleukin I). PAF administration mimics the signs and symptoms of endotoxin induced shock and death and endotoxin also induces the release of PAF. Therefore, the effects of endotoxin should be blocked with a PAF antagonist.
(§2) Male Balb/c mice (approximately 20 g) are obtained from Charles River Laboratories and used after a one-two week acclimation period. Animals are given (ip) test compound dissolved in saline or water (sonicated and heated) at different time intervals prior to and after the ip injection of endotoxin (usually 2 hours before LPS endotoxin, and 3-4 hours after). Sigma E. Coli endotoxin, 0111:B4, phenol extraction, catalog #L2630 is used for these studies.
This LD value is approximately 50 mg/kg i.p. The number of survivors in each group (control or treated with test compound) is recorded after 24, 48 or 72 hours and the treated groups (receiving test compound and endotoxin) are compared with the untreated, control group (receiving endotoxin only) or saline control (receiving saline and endotoxin).
LPS Endotoxin challenge = 50 mg/kg ip
Test cpd given 2 hrs. before and 3-4 hrs. after LPS challenge on day 0,
followed by BID dosing for 3-4 days.

The test system of another assay is PAF. The assay is described as follows: PAF induced lethality in mice. It is filed as in vivo. The following applies: PAF 150 μg/kg IV. The method, then: PAF given I.V. to mice causes an immediate hypotensive shock leading to death in 1 hour or less. […] Animals alive after 2 hours are counted and the activity of test compounds expressed as % survival corrected for any control (saline treated) animals which survived the PAF challenge.

Another assay deals with T1, PAF receptor (Oryctolagus cuniculus, UniProt G1TEI7).
T1 construct: centrifuged at 800 rpm for 10-15 minutes at room temperature to recover the platelet rich plasma (PRP); from tissue; host or cells: platelets in platelet rich plasma from blood of male New Zealand White rabbits
T1 sequence (G1TEI7 1-342): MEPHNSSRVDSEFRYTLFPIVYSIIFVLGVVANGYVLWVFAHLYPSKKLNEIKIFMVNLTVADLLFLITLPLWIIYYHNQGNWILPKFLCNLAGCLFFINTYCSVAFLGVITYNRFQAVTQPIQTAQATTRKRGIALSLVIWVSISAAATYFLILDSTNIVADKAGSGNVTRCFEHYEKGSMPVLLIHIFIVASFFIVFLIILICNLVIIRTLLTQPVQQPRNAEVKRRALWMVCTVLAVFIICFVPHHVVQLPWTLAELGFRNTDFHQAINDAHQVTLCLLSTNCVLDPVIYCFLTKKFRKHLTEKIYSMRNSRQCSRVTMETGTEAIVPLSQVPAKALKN
The assay is described as follows: Inhibition of PAF induced platelet aggregation in rabbit platelet rich plasma. It is filed as cell-based, rabbit (New Zealand White). The note with it: for inhibition at 10 µM: dose .00001 M. As to the method: Test compounds are evaluated as PAF receptor antagonists in vitro by measuring inhibition of PAF (platelet activating factor) induced platelet aggregation. Platelet aggregation is measured by a modification of the method described in […], et. al., J. Med. Chem., 27 1174, 1984. […] All syringes and pipets are plastic. The blood is gently mixed and immediately centrifuged at 800 rpm for 10-15 minutes at room temperature to recover the platelet rich plasma (PRP). Platelet poor plasma (PPP) is prepared by centrifuging PRP at 2800 rpm for 10 minutes at room temperature. Dilutions (1:3000) of PRP in Isotone diluent are made and platelet counts are determined on a Coulter Thrombocounter which is standardized with platelet reference standards (Interscience Platelet Control, Portland, Oreg.). PRP platelet counts are adjusted to approximately 400,000-500,000 platelets/μl by the addition of PPP. L-PAF (Platelet Activating Factor) is obtained from Calbiochem. […] All solutions are made up in plastic tubes, stored on ice and protected from heat and light. Solutions are prepared fresh or frozen at -20° C. and used within 48 hours. Incubation mixtures consisted of 400 μl PRP, 50 μl of saline diluent or test compound and 50 μl of PAF agonist. More specifically, 400μl of PRP is stabilized in a cuvette for 1-2 minutes at 37° C. in the aggregometer to achieve a stable baseline, then 50 μl of saline or test compound is added and incubated for 5 minutes before addition of the challenge concentration of pAF. A submaximal concentration is determined from the dose response curve for PAF for that experiment. In general, the challenge concentration is 5E-8 or 1E-7M. Aggregation is monitored for 5 minutes. Samples containing test compound or diluent are run simultaneously for comparison. Test compounds are initially evaluated at a screening concentration of 1E-5M. […] The recording equipment consists of a dual channel Chronolog aggregometer connected to a dual channel 10MV full scale deflection Omniscribe chart recorder (Houston Instruments). The chart recorder is calibrated daily with the use of a suspension of Bio-Rad latex beads (S-X 12 400 mesh) which has a density slightly greater than rabbit PRP. […] These limits defined a full scale deflection. The aggregation traces are analyzed by a digitizing method (C. Kohler and B. Zoltan, J. Pharm. Methods, 12, 113, 1984) with x, y coordinate data stored in a computer file. A suitable program computes parameters of interest such as the magnitude of aggregation.

Assay [2] concerns LPS endotoxin. The experiment in a line: Low dose, chronic mouse endotoxemia (LPS endotoxin). The class given is in vivo, Male Balb/c mice. The following applies: day 6, LPS 20 mg/kg i.p.
From the text: as §1, §2
For the chronic endotoxin shock model, a lower dose of endotoxin is administered (generally 15 to 20 mg/kg i.p). This dose gives an LD80 in two to four days following LPS administration. Test compounds are given 2 hours before LPS and 3-4 hours after on the first day, followed by 3 or 4 consecutive days of BID dosing. The number of survivors in each group is recorded each day for a period of 5 to 7 days.
All mice challenged with LPS endotoxin = 20 mg/kg i.p.
CL test cpd given 2 hours before and 3-4 hours after LPS challenge on day
0, followed by BID dosing for 3-4 days.

Setting [3] is: PAF challenge 5E-9 M, read-out: % INH of PAF induced platelet aggregation.
Where [4] appears, read: PAF challenge 5.0000E-08 M, read-out: % INH of PAF induced platelet aggregation.

“And” between values parts separate entries of the source, which are not always exact repeats. Equal values may be shown once. Read-outs that look alike come from different tables or passages of the source.

Regarding `CCCCCCCCCCCCCCOc1cccc(CC(=O)Nc2cccc(C[n+]3csc(C)c3)c2)c1.[Br-]` [5-methyl-3-[[3-[[[3-(tetradecyloxy)phenyl]acetyl]amino]phenyl]methyl]thiazolium bromide], the “% Survival” value with LPS endotoxin [1] (day 0) worked out at 100%; in the assay with LPS endotoxin [1] (day 1), 40%; in the assay with LPS endotoxin [1] (day 2) it was 13%; in the assay on LPS endotoxin [1] (day 3), 10%; in the assay with LPS endotoxin [1] (day 4) it was 10%; in the assay on PAF (5 mg/kg P.O.), 40%. The “% Survival” value in the assay with PAF (20 mg/kg P.O.) amounted to 59%; with LPS endotoxin [2] (dose 10 mg/kg i.p.) it was 43%. Further, the survivors/total in the assay with LPS endotoxin [1] (day 0) is 30/30; with LPS endotoxin [1] (day 1), 12/30; in the assay with LPS endotoxin [1] (day 2), 4/30; in the assay with LPS endotoxin [1] (day 3), 3/30; in the assay on LPS endotoxin [1] (day 4), 3/30. In the assay with LPS endotoxin [1] (ip, in words), the “activity when administered ip prior to a lethal ip injection of endotoxin” value is reported as “some activity”. Besides, the IC50 – broadly, the concentration needed to halve the response being measured – against PAF receptor (PAF challenge 5.0000E-08 M) is 0.49 µM and 1.27 µM; at PAF receptor (PAF challenge 5E-9 M), 1.06 µM. In addition, the inhibition at 10 µM at PAF receptor (setting [3]) was found to be 100%.

For `CCCCCCCCCCCCCCOc1ccc(CC(=O)Nc2cccc(C[n+]3ccsc3)c2)cc1.[Br-]` [3-[[3-[[[4-(tetradecyloxy)phenyl]acetyl]amino]phenyl]methyl]thiazolium bromide], the “% Survival” value in the assay with PAF (40 mg/kg P.O.) is listed as 40%; with LPS endotoxin [2] (dose 10 mg/kg i.p.), 63%; in the assay on LPS endotoxin [2] (dose 20 mg/kg i.p.) it was 40%. Moreover, inhibition against PAF receptor (PAF challenge 5E-9 M) was half-maximal at 0.12 µM (IC50). In addition, the inhibition at 2.5 µM on PAF receptor (dose .0000025 M, PAF challenge 5.0000E-08 M, read-out: % INH of PAF induced platelet aggregation) was 97%. The inhibition at 10 µM at PAF receptor (setting [4]) came out at 100%; at PAF receptor (setting [3]), 98%.

`CCCCCCCCCCCCCCOc1ccc(CN(C(=O)NC)c2cccc(C[n+]3csc(C)c3)c2)cc1.[Br-]` [5-methyl-3-[[3-[[(methylamino)carbonyl]-[[4-(tetradecyloxy)phenyl]methyl]amino]phenyl]methyl]-thiazolium bromide]: the values for the 50% inhibitory concentration (IC50) against PAF receptor (PAF challenge 5.0000E-08 M) and against PAF receptor (PAF challenge .0000001 M) were 0.46 µM and 1.09 µM, respectively. The inhibition at 10 µM was 90% on PAF receptor (setting [4]) and 95% on PAF receptor (PAF challenge .0000001 M, read-out: % INH of PAF induced platelet aggregation). Besides, the “% Survival” value worked out at 46% with LPS endotoxin [2] (dose 10 mg/kg i.p.) and 20% with LPS endotoxin [2] (dose 20 mg/kg i.p.).

Source of the values: US5225425A, “Bis-aryl amide antagonists of platelet activating factor” (American Cyanamid Company, priority 1992, dated 1993).
